Values of other authors, collected in patent US20230210786A1, “METHOD FOR SO[…], […] […] CANNABINOIDS” (ATHENION AG, priority 2020, published 2023).

Settings: in vivo

Q: With `CCCCCc1cc(O)c2c(c1)OC(C)(C)[C@@H]1CCC(C)=C[C@@H]21` [THC, (-)-trans-Δ^9-tetrahydrocannabinol] as the compound, how does the “apparent volume of distribution” value read?
A: 10 L/kg

Q: What about the plasma protein binding of the same compound?
A: ca. 97%
